# Experiments:
# [1] = system: hTERT promoter (PhTERT) expression; test: SEAP assay (PhTERT-SEAP reporter, H1299); assay type: cell-based, human; conditions: Homo sapiens, NCI-H1299, PhTERT-SEAP (H1299); for activity at 1 µM: read-out: Relative SEAP activity (%); for activity at 10 µM / activity at 100 µM: read-out: Relative SEAP activity (%) (converted)
# How it was run: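 Stable H1299 clones carrying the hTERT promoter (−3338 to +1) driving SEAP were treated with varying drug amounts for 24 h at 37° C. Heat-treated media (65° C, 10 min) were assayed with 12 mM p-nitrophenyl phosphate in diethanolamine buffer; rate of A405 increase gave SEAP activity.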
# [2] = system: 60 kinds of different human cancer cells; test: NCI 60-cell drug screen, one dose, whole panel; assay type: cell-based; conditions: mean over the tested cell lines, 1.00E−5 Molar
# Protocol: (§1) In brief, cellular protein levels were determined after 48 hours of drug exposure by sulforhodamine B colorimetry.
# (§2) The screening system in United State National Cancer Institute (NCI) consists of 60 kinds of different human cancer cells, which can be used to assay the growth-inhibiting ability or cell toxicity of a compound against various cancer and tumor at a certain concentration. The NCI had selected 6 compounds synthesized above, and performed cell toxicity assay against 60 kinds of cancer cell strains (Table 2) (DTP Human Tumor Cell Line Screen), in which each compound was assayed at a certain concentration to observe its inhibition ability or cell toxicity against various kinds of cancer and tumor.
# SF-539 = test: NCI 60-cell drug screen, one dose; assay type: cell-based, human; conditions: CNS Cancer SF-539, 1.00E−5 Molar
# Protocol: as §1, §2
# SNB-19 = test: NCI 60-cell drug screen, one dose; assay type: cell-based, human; conditions: CNS Cancer SNB-19, 1.00E−5 Molar
# Protocol: as §1, §2
# HT29 = test: NCI 60-cell drug screen, one dose; assay type: cell-based, human; conditions: Colon Cancer HT29, 1.00E−5 Molar
# Protocol: as §1, §2
# HS 578-T = test: NCI 60-cell drug screen, one dose; assay type: cell-based, human; conditions: Breast Cancer HS 578-T, 1.00E−5 Molar
# Protocol: as §1, §2
# SK-OV-3 = test: NCI 60-cell drug screen, one dose; assay type: cell-based, human; conditions: Ovarian Cancer SK-OV-3, 1.00E−5 Molar
# Protocol: as §1, §2
# HOP-62 = test: NCI 60-cell drug screen, one dose; assay type: cell-based, human; conditions: Non-Small Cell Lung Cancer HOP-62, 1.00E−5 Molar
# Protocol: as §1, §2
# SW-620 = test: NCI 60-cell drug screen, one dose; assay type: cell-based, human; conditions: Colon Cancer SW-620, 1.00E−5 Molar
# Protocol: as §1, §2
# M14 = test: NCI 60-cell drug screen, one dose; assay type: cell-based, human; conditions: Melanoma M14, 1.00E−5 Molar
# Protocol: as §1, §2
# 786-0 = test: NCI 60-cell drug screen, one dose; assay type: cell-based, human; conditions: Renal Cancer 786-0, 1.00E−5 Molar
# Protocol: as §1, §2
# ACHN = test: NCI 60-cell drug screen, one dose; assay type: cell-based, human; conditions: Renal Cancer ACHN, 1.00E−5 Molar
# Protocol: as §1, §2
# EKVX = test: NCI 60-cell drug screen, one dose; assay type: cell-based, human; conditions: Non-Small Cell Lung Cancer EKVX, 1.00E−5 Molar
# Protocol: as §1, §2
# NCI-H322M = test: NCI 60-cell drug screen, one dose; assay type: cell-based, human; conditions: Non-Small Cell Lung Cancer NCI-H322M, 1.00E−5 Molar
# Protocol: as §1, §2
# SK-MEL-28 = test: NCI 60-cell drug screen, one dose; assay type: cell-based, human; conditions: Melanoma SK-MEL-28, 1.00E−5 Molar
# Protocol: as §1, §2
# OVCAR-5 = test: NCI 60-cell drug screen, one dose; assay type: cell-based, human; conditions: Ovarian Cancer OVCAR-5, 1.00E−5 Molar
# Protocol: as §1, §2
# KM12 = test: NCI 60-cell drug screen, one dose; assay type: cell-based, human; conditions: Colon Cancer KM12, 1.00E−5 Molar
# Protocol: as §1, §2
# MDA-MB-435 = test: NCI 60-cell drug screen, one dose; assay type: cell-based, human; conditions: Melanoma MDA-MB-435, 1.00E−5 Molar
# Protocol: as §1, §2
# MDA-MB-231/ATCC = test: NCI 60-cell drug screen, one dose; assay type: cell-based, human; conditions: Breast Cancer MDA-MB-231/ATCC, 1.00E−5 Molar
# Protocol: as §1, §2
# NCI-H522 = test: NCI 60-cell drug screen, one dose; assay type: cell-based, human; conditions: Non-Small Cell Lung Cancer NCI-H522, 1.00E−5 Molar
# Protocol: as §1, §2
# TK-10 = test: NCI 60-cell drug screen, one dose; assay type: cell-based, human; conditions: Renal Cancer TK-10, 1.00E−5 Molar
# Protocol: as §1, §2
# SNB-75 = test: NCI 60-cell drug screen, one dose; assay type: cell-based, human; conditions: CNS Cancer SNB-75, 1.00E−5 Molar
# Protocol: as §1, §2
# SN12C = test: NCI 60-cell drug screen, one dose; assay type: cell-based, human; conditions: Renal Cancer SN12C, 1.00E−5 Molar
# Protocol: as §1, §2
# MDA-MB-468 = test: NCI 60-cell drug screen, one dose; assay type: cell-based, human; conditions: Breast Cancer MDA-MB-468, 1.00E−5 Molar
# Protocol: as §1, §2
# SK-MEL-2 = test: NCI 60-cell drug screen, one dose; assay type: cell-based, human; conditions: Melanoma SK-MEL-2, 1.00E−5 Molar
# Protocol: as §1, §2
# LOX IMVI = test: NCI 60-cell drug screen, one dose; assay type: cell-based, human; conditions: Melanoma LOX IMVI, 1.00E−5 Molar
# Protocol: as §1, §2
# [3] = NCI 60-cell drug screen, one dose; assay type: cell-based, human; conditions: Renal Cancer A489, 1.00E−5 Molar
# Protocol: as §1, §2
# DU145 = test: NCI 60-cell drug screen, one dose; assay type: cell-based, human; conditions: Prostate Cancer DU145, 1.00E−5 Molar
# Protocol: as §1, §2
SMILES,activity at 1 µM [1],activity at 10 µM [1],activity at 100 µM [1],"Growth Percent, Mean [2]",Growth Percent (SF-539),Growth Percent (SNB-19),Growth Percent (HT29),Growth Percent (HS 578-T),Growth Percent (SK-OV-3),Growth Percent (HOP-62),Growth Percent (SW-620),Growth Percent (M14),Growth Percent (786-0),Growth Percent (ACHN),Growth Percent (EKVX),Growth Percent (NCI-H322M),Growth Percent (SK-MEL-28),Growth Percent (OVCAR-5),Growth Percent (KM12),Growth Percent (MDA-MB-435),other results
"CN(CCc1ccccn1)Cc1nc2ccc3c(c2[nH]1)C(=O)c1ccccc1C3=O [CL07, 2-((N-methyl-2-(pyridin-2-yl)ethanamino)methyl)-1H-anthra[1,2-d]imidazole-6,11-dione]",96.5 ± 5.53%,< 50%,-3.16%,89.07%,102.32%,87.77%,84.18%,108.96%,106.7%,105.37%,100.52%,106.97%,89.74%,80.20%,82.24%,102.29%,97.01%,109.14%,89.03%,93.53%,Growth Percent (MDA-MB-231/ATCC): 88.98%; Growth Percent (NCI-H522): 86.39%; Growth Percent (TK-10): 130.74%; Growth Percent (SNB-75): 81.62%; Growth Percent (SN12C): 91.19%; Growth Percent (MDA-MB-468): 77.09%; Growth Percent (SK-MEL-2): 95.03%; Growth Percent (LOX IMVI): 89.67%; Growth Percent [3]: 69.60%; Growth Percent (DU145): 83.70%
"CN1CCN(Cc2nc3ccc4c(c3[nH]2)C(=O)c2ccccc2C4=O)CC1 [CL24, 2-((4-methylpiperazin-1-yl)methyl)-1H-anthra[1,2-d]imidazole-6,11-dione]",106 ± 2.94%,23.2%,6.23%,59.85%,63.88%,65.60%,22.64%,51.48%,74.33%,60.84%,44.22%,97.20%,59.13%,33.08%,65.93%,82.41%,96.38%,97.72%,55.51%,86.53%,Growth Percent (MDA-MB-231/ATCC): 61.66%; Growth Percent (NCI-H522): 64.61%; Growth Percent (TK-10): 73.05%; Growth Percent (SNB-75): 69.87%; Growth Percent (SN12C): 48.50%; Growth Percent (MDA-MB-468): 71.59%; Growth Percent (SK-MEL-2): 107.95%; Growth Percent (LOX IMVI): 43.47%; Growth Percent [3]: 69.36%; Growth Percent (DU145): 60.08%
